Measurements: US6365628B1 (Thia Medica AS, priority 1998, dated 2002)

Legend:
Escherichia coli = test: Test for mutagenic activity in Escherichia coli strains; assay type: cell-based; conditions: 3-1000 mg/plate (TTA) 2-5000 mg/plate (TSA)
Source text: (§1) Tests for mutagenic activity have been performed by Covance Laboratories Limited, England. […] Furthermore, TTA was not mutagenic when tested in mouse lymphoma cells […] L5178Y.

male dogs = test: Body weights of male dogs treated for 4 weeks (Example 10); assay type: in vivo, dog; conditions: 500 mg/kg/day orally in capsules
Procedure: 3 male dogs (4-6 months old) were housed singly during the days. Each animal was offered 400 g of SQC Diet A each morning after dosing and any residue diet was removed in the afternoon. The drug was administered orally in capsules once daily for 28 days.

old obese Zucker rats = test: Plasma free fatty acids, ketone bodies and liver HMG-CoA synthase in old obese Zucker rats (Table 7); assay type: in vivo, rat; conditions: 21 week-old male obese Zucker (fa/fa) rats, standard diet with 0.15% TTA for 15 days, means ± SD
Procedure: Glucose (GLU, Boehringer Mannheim, Germany), free fatty acids (NEFA, C ACS-ACOD kit; Wako Chemicals, Dalton, USA) and b-hydroxybutyrate (310-A kit; Sigma Diagnostics Inc., St. Louis, USA) concentrations were measured using enzymatic methods. Insulin concentrations were determined with radioimmunoassay by (CIS bio International, Gif sur Yvette, France) using rat insulin as standard in the Zucker rats. In the Wistar Charles River rats, plasma glucose concentrations were measured with the aid of Beckman Glucose Analyzer (Fullerton, Calif., USA). Plasma insulin levels were measured using a RIA kit from Linco Research Inc. (St. Charles, Mo., USA). Phospholipids were measured by the enzymatic method of bioMérieux, Marcy-l {grave over ( )}Etoile, France, Triacylglycerol by the Technicon Method no. SA4-0324L90, USA and Cholesterol by the Technicon Method no. SA4-0305L90, USA.
Freshly isolated livers from individual old Zucker rats, were homogenised in ice-cold sucrose buffer (0.25 M sucrose, 10 mM HEPES (pH 7.4) and 2 mM EDTA). Post-nuclear and mitochondrial fractions were prepared using preparative differential centrifugation according to DeDuve et al. (De Duve, C., et al., Biochem. J., 60, 604-617 1955.) Modifications, purity and yield were as described earlier (Garras, A., et al., Biochim. Biophys. Acta, 1255, 154-160 1995.). Acid soluble products were measured in post-nuclear and mitochondrial enriched fractions, using [1-^14C]-palmitoyl-CoA and [1-^14C]-palmitoyl-L-carnitine (Radiochemical Centre, Amersham, England) as substrates as described earlier (Willumsen, N., et al., J. Lipid Res., 34, 13-22 1993. Carnitine palmitoyltransferase-I and -II activities were measured in the post-nuclear and mitochondrial fractions essentially as described by Bremer (Bremer, J., Biochim. Biophys. Acta, 665, 628-631 1981.) and 3-hydroxy-3-methylglutharyl-CoA synthase was measured according to Clinkenbeard et al. (Clinkenbeard, K. D., et al., J. Biol. Chem, 250, 3108-3116 1975.) in the mitochondrial fractions.
Data are means±SD of six animals in both the control- and the experimental group. Free fatty acids (FFA) and ketone bodies ([…]) were measured in plasma and 3-hydroxy-3-methylglutaryl (HMG) -CoA synthase activities were measured in mitochondrial fractions prepared from the liver from 21 week-old male obese Zucker (fa/fa) rats given either a standard diet (control) or a standard diet enriched with 0.15% TTA for 15 days.

PPARα = molecular target: T1, PPARα (Homo sapiens, UniProt Q07869); test: Ligand of PPARα; assay type: binding
T1 sequence (Q07869 1-468): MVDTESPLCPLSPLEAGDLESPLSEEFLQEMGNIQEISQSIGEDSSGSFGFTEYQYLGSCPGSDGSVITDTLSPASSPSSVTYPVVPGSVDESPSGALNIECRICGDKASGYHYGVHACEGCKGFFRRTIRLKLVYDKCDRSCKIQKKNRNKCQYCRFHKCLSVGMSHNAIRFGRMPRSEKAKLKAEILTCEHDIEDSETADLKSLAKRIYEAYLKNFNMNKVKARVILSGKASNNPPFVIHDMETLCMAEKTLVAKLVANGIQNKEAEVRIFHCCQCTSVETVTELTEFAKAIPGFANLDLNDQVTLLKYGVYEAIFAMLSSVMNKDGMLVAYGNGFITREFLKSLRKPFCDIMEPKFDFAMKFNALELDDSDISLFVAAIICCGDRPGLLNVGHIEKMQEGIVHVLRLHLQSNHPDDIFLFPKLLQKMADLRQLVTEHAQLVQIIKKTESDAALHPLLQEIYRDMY

Salmonella typhimurium = test: Test for mutagenic activity in Salmonella typhimurium strains; assay type: cell-based; conditions: 3-1000 mg/plate (TTA) 2-5000 mg/plate (TSA)
Source text: as §1

dogs = test: 28 days toxicity study in dogs (GLP), oral TTA; assay type: in vivo, dog
Source text: A 28 days toxicity study in dogs according to GLP guide-lines has been performed by Corning Hazleton (Europe), England. […] Some lipid related parameters were lowered in the animals given high dosages. This is consistent with the pharmacological activity of TTA.

Tetradecylthioacetic acid [TTA]
Induction of mutations in strains of Escherichia coli (Escherichia coli): did not induce mutations
Mean body weight (kg) (male dogs; week 0): 9,22 ± 1,77 kg
Mean body weight (kg) (male dogs; week 1): 8,95 kg
Mean body weight (kg) (male dogs; week 2): 8,75 ± 1,58 kg
Mean body weight (kg) (male dogs; week 3): 8,58 kg
Mean body weight (kg) (male dogs; week 4): 8,50 ± 1,74 kg
HMG-CoA synthase activity (nmol/min/mg protein) (old obese Zucker rats; liver mitochondrial fractions): 27 ± 6 nmol/min/mg protein
4-OH butyrate (old obese Zucker rats; plasma): 3.44 ± 1.37 mmol/L
FFA (mEq/L) (old obese Zucker rats; plasma): 0.53 ± 0.21 mEq/L
FFA/ketone ratio (old obese Zucker rats; plasma): 0.17 ± 0.09
Ligand of PPARα (PPARα): potent ligand
Induction of mutations in strains of Salmonella typhimurium (Salmonella typhimurium): did not induce mutations
Effect on body weight (dogs; 500 mg/kg/day): body weight loss
Evidence of toxicity (dogs; dose levels of 50 or 500 mg/day/kg): no evidence of toxicity
Tolerability of oral administration (dogs; dose levels up to 500 mg/kg/day): generally well tolerated
